Data reported in patent publication US20240118210A1, “FFN FLUORESCENCE RELEASE ASSAY (FFRA) AND METHODS OF USING SAME” (Duke University, priority 2021, published 2024).

What was measured:
healthy donor platelets [1] = assay: FFN246 release from platelets activated with A23187 at varying FFN246 concentrations (Example 2, FIG. 1); format: cell-based; conditions: for MFI of platelet releasate, FFN246+A23187: A23187 45 min
Source text: Calcium (Ca) ionophores mobilize calcium ions from intracellular storage sites or transport it through the plasma membrane to increase the concentration of cytoplasmic calcium ions (Ca^2+) and thereby activate platelets. The Ca ionophore A23187 works by triggering release of Ca^2+ from the dense tubular system of platelets and is a potent activator of platelets. A23187 was used to test if FFN246 loaded platelets would release FFN246 into the supernatant upon activation.
Platelets were then washed twice in buffer containing prostaglandin E1 (PGE1) and apyrase to minimize platelet activation. The washed platelets were resuspended in Mg^2+/Ca^2+ buffer without inhibitors. Washed platelets were then incubated with A23187 for 45 minutes, after which platelets were centrifuged for 10 minutes at 576×g. Fluorescence in the platelet releasate/supernatant was measured in a BMG Labtech Fluostar Optima fluorometer at an appropriate emission/excitation spectra. Gain was set using the FFN246 releasate for each concentration at 50% of maximum signal.

[2] = tested on: healthy donor washed platelets; assay: FFN246 release on platelet activation with HIT-like monoclonal antibody KKO (Example 4, FIG. 3); format: cell-based; conditions: for MFI of platelet releasate, FFN246+agonist or antibody, no heparin: platelets loaded with 50 μM FFN246, 45 min, collagen 63 nM, SFLLRN 100 μM, KKO alone 25 μg/mL
Description: To examine the effect of various platelet agonists on FFN246 release, healthy donor washed platelets were incubated with 50 μM FFN246 for 30 minutes, followed by addition of 1 mM imipramine for 10 minutes to block further reuptake. Platelets were then incubated with (1) A23187 10 μM; (2) collagen 63 nM; (3) SFLLRN 100 μM; (4) buffer; (5) KKO alone 25 μg/mL; (6) 0.5 U/mL heparin, 25 μg/ml KKO; (7) 10 U/mL heparin, 25 μg/mL KKO; (8) 0.5 U/mL heparin, 25 μg/mL TRA; and (9) A23187 10 μM (no FFN246). Incubation occurred for 45 minutes and platelets were centrifuged for 10 minutes at 576×g. Fluorescence in the platelet releasate was measured in a BMG Labtech Fluostar optima fluorometer at an appropriate emission/excitation spectra. Gain was set using the FFN246 releasate for each concentration at 50% of maximum signal.

[3] = tested on: healthy donor platelet rich plasma; assay: Release of FFN246 vs FFN102 from platelets exposed to calcium ionophore (Example 5, FIG. 4); format: cell-based; conditions: 100 μM FFN; for MFI of supernatant, FFN-loaded platelets incubated with ionophore: calcium ionophore
Description: Drawing of donor blood and preparation of donor platelets. 10-20 cc of blood were drawn off into Acid-Citrate Dextrose. 20 mL of whole blood generated 8-10 mL of platelet rich plasma (PRP). The whole blood was spun down at 180 g for 20 minutes without using the brake. Donor PRP was separated and the needed PRP was calculated for each of the FFN246 and buffer conditions. 25 μM of FFN246 was added to the PRP condition labeled “FFN246”. 2.5 μL/mL of PGE1 was added to each PRP condition simultaneously. The mixture was incubated at 37° C. for 30 minutes in a H2O bath. For example, for 2.5 mL PRP, 6.25 μL PGE1 and 6.25 μL FFN246 were added. FFN246 was not added to the buffer PRP condition.
The mixture was centrifuged at 700 g for 10 minutes with a brake at 22° C. to 26° C. The supernatant was discarded and the platelets were gently resuspended in PGE1/Apyrase buffer 1 mL per mL PRP for 15 minutes at room temperature. For example, 2.5 mL PRP was resuspended in 2.5 mL buffer. This was centrifuged at 700 g for 10 minutes at room temperature with a brake. The supernatant was discarded and FFN246 or platelets were resuspended into 2 mL/PRP of Ca/Mg buffer after using a pipette to completely remove PGE1/apyrase containing buffer above pellet. For example, 2.5 mL of platelets was resuspended with 5 mL of HT Ca/Mg.
When various conditions were tested, such as NP40, buffer alone, buffer+heparin, SFLLRN, and additional conditions dictated by an experiment, the following aliquots were added: agonist, plasma, or antibody; buffer added to agonist to make 50 μL total; and 150 μL of FFN246 buffer labeled platelets. The conditions were allowed to develop for 1 hour at 37° C. on an agitator. The conditions were then centrifuged at 700 g for 10 mins at room temperature with a brake. 75 μL of the supernatant was added per well in triplicate. Fluorometer analysis was ran within 1 hour at appropriate excitation/emission spectra (FFN246 ex/em (nm): 392/427).
The amount of FFN246 released from platelets was compared to that of FFN102, a dopaminergic fluorophore. Healthy donor platelet rich plasma was incubated with 100 μM of FFN246, FFN102, or buffer alone. Incubation and washing occurred per the protocol described in Example 1. Resuspended platelets were added either to calcium ionophore or buffer conditions for both FFN246 and FFN102. Supernatant was collected following centrifugation and analyzed using fluorometry.

5-HT receptors = conditions: cited from earlier work
[4] = biological target: norepinephrine transporters (NET) (Homo sapiens, UniProt P23975); conditions: relative to SERT uptake; cited from earlier work
[5] = biological target: dopamine transporters (DAT) (Homo sapiens, UniProt Q01959); conditions: relative to SERT uptake; cited from earlier work
healthy donor platelets [6] = assay: FFN246 release with platelet activation by several platelet agonists (Example 3, FIG. 2); format: cell-based; conditions: for MFI of platelet releasate, FFN246+agonist: platelets loaded with 50 μM FFN246, 45 min, A23187 10 μM, ADP 25 μM, ristocetin 73 μM, collagen 63 nM, IIa 278 nM, PAR4 peptide 200 μM, SFLLRN 100 μM
Description: To determine if FFN246 loaded platelets release FFN246 with other platelet agonists and receptor mechanisms, FFN246 release was examined by incubating platelets with several platelet secretogogues, including collagen, IIa, PAR4, SFLLRN. […] Collagen stimulates the GP VI receptor; ADP stimulates the P2Y1 and P2Y12 receptors; IIa activates PAR1 and PAR4 receptors; SFLLRN binds to the PAR1 receptor; PAR4 agonist binds the PAR4 receptor.
To examine the effect of various platelet agonists on FFN246 release, healthy donor platelets were washed and incubated with and without FFN246 (50 μM) for 30 minutes, followed by the addition of 1 mM imipramine for 10 minutes to block further reuptake. Platelets were then incubated with the various conditions: (1) A23187 10 μM; (2) buffer alone; (3) ADP 25 μM; (4) ristocetin 73 μM; (5) collagen 63 nM; (6) IIa 278 nM; (7) PAR4 peptide 200 μM; (8) SFLLRN 100 μM: and (9) buffer only platelets+A23187 (10 μM) for 45 minutes. Following incubation with agonists, platelets were centrifuged for 10 minutes at 576×g. Fluorescence in the platelet releasate (i.e. supernatant) was measured in a BMG Labtech Fluostar Optima fluorometer at an appropriate emission/excitation spectra. Gain was set using the FFN246 releasate for each concentration at 50% of maximum signal.

platelets = assay: PF4 addition to assay conditions (platelet activation); format: cell-based; conditions: 30 μg/ml; healthy donor and HIT samples; absence of heparin addition
Source text: PF4 addition to assay conditions. Platelet factor 4 (PF4) is a 31.2 kDa protein synthesized primarily by megakaryocytes and stored in platelet alpha granules. Positively charged PF4 forms ultra large immune complexes with negatively charged heparin in patients who develop pathological heparin induced thrombocytopenia (HIT).

Sequence of dopamine transporters (DAT) (Q01959 whole entry, species assumed): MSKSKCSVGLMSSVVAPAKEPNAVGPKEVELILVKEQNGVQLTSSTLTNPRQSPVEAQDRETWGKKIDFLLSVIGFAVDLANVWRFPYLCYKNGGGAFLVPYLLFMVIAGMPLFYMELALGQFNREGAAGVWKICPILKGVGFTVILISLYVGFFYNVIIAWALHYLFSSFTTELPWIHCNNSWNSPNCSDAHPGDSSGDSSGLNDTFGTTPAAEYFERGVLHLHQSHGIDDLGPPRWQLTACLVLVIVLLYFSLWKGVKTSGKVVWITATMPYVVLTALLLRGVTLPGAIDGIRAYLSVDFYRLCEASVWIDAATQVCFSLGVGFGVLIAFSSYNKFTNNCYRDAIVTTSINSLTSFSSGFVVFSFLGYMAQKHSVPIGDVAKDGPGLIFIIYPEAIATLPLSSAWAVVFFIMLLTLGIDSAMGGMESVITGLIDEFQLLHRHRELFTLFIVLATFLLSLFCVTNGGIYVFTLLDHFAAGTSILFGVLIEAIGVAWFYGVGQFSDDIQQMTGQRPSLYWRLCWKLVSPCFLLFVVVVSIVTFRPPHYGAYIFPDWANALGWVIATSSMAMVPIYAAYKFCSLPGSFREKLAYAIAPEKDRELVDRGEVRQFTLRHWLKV
Sequence of norepinephrine transporters (NET) (P23975 whole entry): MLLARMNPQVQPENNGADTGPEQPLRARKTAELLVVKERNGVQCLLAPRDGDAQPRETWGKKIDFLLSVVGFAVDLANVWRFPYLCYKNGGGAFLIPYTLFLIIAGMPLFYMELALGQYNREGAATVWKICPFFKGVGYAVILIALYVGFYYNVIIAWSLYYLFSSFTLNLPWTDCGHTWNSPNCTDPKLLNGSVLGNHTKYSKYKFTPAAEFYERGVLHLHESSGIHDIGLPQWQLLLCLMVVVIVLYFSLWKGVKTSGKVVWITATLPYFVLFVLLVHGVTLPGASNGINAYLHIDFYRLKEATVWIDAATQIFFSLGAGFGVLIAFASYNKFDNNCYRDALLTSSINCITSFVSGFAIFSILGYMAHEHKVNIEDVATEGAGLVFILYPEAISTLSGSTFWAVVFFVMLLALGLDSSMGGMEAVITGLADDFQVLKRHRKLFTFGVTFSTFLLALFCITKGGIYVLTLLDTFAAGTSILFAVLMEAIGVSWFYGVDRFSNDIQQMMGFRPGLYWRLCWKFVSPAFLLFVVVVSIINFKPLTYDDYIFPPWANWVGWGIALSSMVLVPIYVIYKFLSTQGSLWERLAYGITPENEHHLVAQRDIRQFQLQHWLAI

In the case of `NCCc1ccc2[nH]c3cccc(F)c3c(=O)c2c1` [FFN246], the “MFI of platelet releasate, FFN246+A23187” value (healthy donor platelets [1]; 10 uM FFN246) is reported as 25,790, the “MFI of platelet releasate, FFN246+A23187” value (healthy donor platelets [1]; 25 μM FFN246) is reported as 36,124 and the “MFI of platelet releasate, FFN246+A23187” value (healthy donor platelets [1]; 50 μM FFN246) is reported as 30,470. The “MFI of platelet releasate, FFN246+A23187” value (healthy donor platelets [1]; 100 μM FFN246) was 35,405, the “MFI of platelet releasate, FFN246+buffer” value ([2]; 50 μM FFN246, no agonist) was 11688 and the “MFI of supernatant, FFN-loaded platelets incubated with buffer” value [3] was 15,692+1203. For the same molecule, the “MFI of supernatant, FFN-loaded platelets incubated with ionophore” value [3] was 32901+448, the “activity at 5-HT receptors” value (5-HT receptors) was “no activity at 5-HT receptors” and the “binding to neurotransmitter receptors” value (5-HT receptors) was “does not bind to neurotransmitter receptors”. The “uptake by norepinephrine transporters (NET), lower than SERT” value [4] was 23%, the “uptake by dopamine transporters (DAT), lower than SERT” value [5] was 31% and the “MFI of platelet releasate, FFN246+buffer” value (healthy donor platelets [6]; 50 μM FFN246, no agonist) was 12199.

With `Cl.NCCc1cc(=O)oc2cc(O)c(Cl)cc12` [FFN102] the “MFI of supernatant, FFN-loaded platelets incubated with buffer” value [3] was 7247+352 and the “MFI of supernatant, FFN-loaded platelets incubated with ionophore” value [3] was 9845+352.

With `CNc1ccc2oc(C[C@H]3O[C@@]4(CC[C@H]3C)O[C@H]([C@H](C)C(=O)c3ccc[nH]3)[C@H](C)C[C@H]4C)nc2c1C(=O)O` [A23187] the “MFI of platelet releasate, buffer+A23187 (no FFN246)” value (“MFI … buffer+A23187 (no FFN246)” below) (healthy donor platelets [1]; background paired with 10 uM FFN246 condition) was 10,100, the “MFI … buffer+A23187 (no FFN246)” value (healthy donor platelets [1]; background paired with 25 μM FFN246 condition) was 4,707 and the “MFI … buffer+A23187 (no FFN246)” value (healthy donor platelets [1]; background paired with 50 μM FFN246 condition) was 3,461. The “MFI … buffer+A23187 (no FFN246)” value (healthy donor platelets [1]; background paired with 100 μM FFN246 condition) was 1,676, the “MFI of platelet releasate, buffer+calcium ionophore (no FFN246)” value ([2]; A23187 10 μM, no FFN246) was 11399 and the “MFI of platelet releasate, FFN246+agonist or antibody, no heparin” value (shortened to “MFI of platelet releasate … no heparin”) ([2]; A23187 10 μM) was 32674. For the same molecule, the “MFI of platelet releasate, buffer+calcium ionophore (no FFN246)” value (healthy donor platelets [6]; buffer only platelets + A23187 10 μM) was 12526 and the “MFI of platelet releasate, FFN246+agonist” value (healthy donor platelets [6]) was 31924.

With collagen the “MFI of platelet releasate … no heparin” value ([2]; A23187 10 μM) was 24388 and the “MFI of platelet releasate, FFN246+agonist” value (healthy donor platelets [6]) was 24369.

With ristocetin the “MFI of platelet releasate, FFN246+agonist” value (healthy donor platelets [6]) was 12247.

For `Nc1ncnc2c1ncn2[C@@H]1O[C@H](COP(=O)(O)OP(=O)(O)O)[C@@H](O)[C@H]1O` [ADP, adenosine diphosphate], the “MFI of platelet releasate, FFN246+agonist” value (healthy donor platelets [6]) was 14013.

In the case of SFLLRN, the “MFI of platelet releasate … no heparin” value ([2]; A23187 10 μM) is reported as 25426 and the “MFI of platelet releasate, FFN246+agonist” value (healthy donor platelets [6]) is reported as 26703.

B1: PF4: 31.2 kDa protein synthesized primarily by megakaryocytes and stored in platelet alpha granules (protein, UniProt P02776 32-101, looked up)
Platelet factor 4: EAEEDGDLQCLCVKTTSQVRPRHITSLEVIKAGPHCPTAQLIATLKNGRKICLDLQAPLYKKIIKKLLES
In the case of B1, the “platelet activation by exogenous PF4 added to plasma conditions” value (platelets) is reported as “led to platelet activation”.
